Like-named read-outs stand apart in the source and are kept apart here.
Experiments:
[1] = tested on: Aβ40 in conditioned medium of cells stably expressing Amyloid Precursor Protein (APP); assay: In vitro BACE-1 cell-based assay (Aβ40 sandwich ELISA); conditions: read-out: IC50 IP (μM) BACE1 cell
Summary of the method: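 APP-expressing cells treated 24 h at 37 °C with compound in 10-point dose response (top 100 μM or 10 μM, 0.1% DMSO final). Secreted Aβ40 in conditioned medium quantified by sandwich ELISA (pAb40 capture, biotinylated 6E10 detection, time-resolved europium fluorescence); IC50 from percent inhibition versus concentration.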

human recombinant BACE2 = human recombinant BACE2 (Homo sapiens (Human), UniProt Q9Y5Z0); assay: In vitro enzymatic BACE2 FRET assay; type: biochemical; conditions: read-out: IC50 IP (μM) BACE2 enzyme
Chain of human recombinant BACE2 (Q9Y5Z0 63-518): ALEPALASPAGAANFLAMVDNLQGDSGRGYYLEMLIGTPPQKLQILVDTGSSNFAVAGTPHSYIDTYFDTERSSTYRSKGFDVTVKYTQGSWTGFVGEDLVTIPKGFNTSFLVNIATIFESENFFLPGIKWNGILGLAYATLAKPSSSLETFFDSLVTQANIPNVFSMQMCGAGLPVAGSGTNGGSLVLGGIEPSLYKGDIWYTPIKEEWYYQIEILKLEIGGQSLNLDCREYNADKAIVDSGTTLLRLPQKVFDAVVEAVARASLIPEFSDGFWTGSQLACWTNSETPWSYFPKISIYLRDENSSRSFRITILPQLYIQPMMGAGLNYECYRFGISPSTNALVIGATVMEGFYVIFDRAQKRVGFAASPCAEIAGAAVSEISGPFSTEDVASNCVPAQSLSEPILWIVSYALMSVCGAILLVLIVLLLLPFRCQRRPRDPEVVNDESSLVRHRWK
Summary of the method: (§1)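 Ni-NTA-purified recombinant protease incubated with compound; reaction started with 50 nM FRET peptide substrate (fluorophore/quencher flanking the BACE cleavage site) and run 1 h. Stopped with Tris buffer raising pH to neutral; fluorescence read at ex 488/em 590 nm.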

human recombinant BACE1 = human recombinant BACE1 (Homo sapiens (Human), UniProt P56817); assay: In vitro enzymatic BACE1 FRET assay; type: biochemical; conditions: read-out: IC50 IP (μM) BACE1 enzyme
Chain of human recombinant BACE1 (P56817 46-501): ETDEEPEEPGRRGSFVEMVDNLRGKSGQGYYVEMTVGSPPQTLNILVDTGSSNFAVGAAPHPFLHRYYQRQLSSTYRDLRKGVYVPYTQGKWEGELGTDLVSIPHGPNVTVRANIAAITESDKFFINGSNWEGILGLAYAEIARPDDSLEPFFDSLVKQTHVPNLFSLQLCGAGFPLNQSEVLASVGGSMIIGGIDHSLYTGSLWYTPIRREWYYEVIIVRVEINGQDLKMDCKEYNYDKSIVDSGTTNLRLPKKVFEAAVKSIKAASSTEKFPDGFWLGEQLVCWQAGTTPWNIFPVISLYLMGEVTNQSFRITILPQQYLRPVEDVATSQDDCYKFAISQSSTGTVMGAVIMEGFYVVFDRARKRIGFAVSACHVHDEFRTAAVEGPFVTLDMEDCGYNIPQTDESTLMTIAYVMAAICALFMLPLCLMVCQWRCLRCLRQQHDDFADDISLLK
Summary of the method: as §1

Recombinant Cat D = Recombinant Cat D (Homo sapiens (Human), UniProt P07339); assay: In vitro enzymatic Cathepsin D (Cat D) FRET assay; type: biochemical; conditions: read-out: IC50 IP (μM) CatD
Chain of Recombinant Cat D (P07339 65-412): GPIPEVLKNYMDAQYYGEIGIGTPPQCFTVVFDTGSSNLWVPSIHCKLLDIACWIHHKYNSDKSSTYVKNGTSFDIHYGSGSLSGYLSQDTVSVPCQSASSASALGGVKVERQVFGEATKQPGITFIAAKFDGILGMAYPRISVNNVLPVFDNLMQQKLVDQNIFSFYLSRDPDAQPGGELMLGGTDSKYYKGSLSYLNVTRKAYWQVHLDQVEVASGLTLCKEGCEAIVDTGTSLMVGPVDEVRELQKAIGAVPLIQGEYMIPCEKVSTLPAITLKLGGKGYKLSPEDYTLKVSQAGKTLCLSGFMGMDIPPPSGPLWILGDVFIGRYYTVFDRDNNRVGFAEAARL
Summary of the method: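 CHO-expressed enzyme; buffer 0.05 M citrate pH 3.5, 5 mM CHAPS, 10% DMSO final. Start with FRET substrate 20 nM, 1 h incubation, Tris stop (pH to neutral), fluorescence ex 500 nm/em 580 nm.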

| IC50 [1] [µM] | IC50 (human recombinant BACE2) [µM] | IC50 (human recombinant BACE1) [µM] | IC50 (Recombinant Cat D) [µM] | IC50 ([1]; BACE1 cell-based assay) [µM] | IC50 (human recombinant BACE2; BACE2 FRET enzyme assay) [µM] | IC50 (human recombinant BACE1; BACE1 FRET enzyme assay) [µM] | IC50 (Recombinant Cat D; Cathepsin D FRET enzyme assay) [µM] | Compound |
| --- | --- | --- | --- | --- | --- | --- | --- | --- |
| 0.00154 | 0.00887 | 0.000737 | 98.9 |  |  |  |  | C#CCOc1cnc(C(=O)Nc2cnc(OC)c([C@@]3(C)N=C(N)S[C@@]4(C#N)C[C@H]43)c2)cn1 [Example 964, N-(5-((1S,5S,6S)-3-amino-1-cyano-5-methyl-2-thia-4-azabicyclo[4.1.0]hept-3-en-5-yl)-6-methoxy-3-pyridinyl)-5-(2-propyn-1-yloxy)-2-pyrazinecarboxamide] |
| 0.587 | 0.912 | 0.0801 | 223 |  |  |  |  | CC(C)Oc1cnc2c(Nc3cc(F)c(F)c([C@@]4(C)N=C(N)S[C@@]5(C(F)F)C[C@@H]45)c3)nccc2n1 [Example 876, N-(3-((1S,5S,6S)-3-amino-1-(difluoromethyl)-5-methyl-2-thia-4-azabicyclo[4.1.0]hept-3-en-5-yl)-4,5-difluorophenyl)-2-(1-methylethoxy)pyrido[3,4-b]pyrazin-5-amine] |
| 0.00216 | 0.0696 | 0.00102 | > 400 |  |  |  |  | C#CCOc1cnc2c(Nc3cnc(F)c([C@@]4(C)N=C(N)S[C@@]5(CF)C[C@H]54)c3)ncnc2c1 [Example 944, N-(5-((1S,5S,6S)-3-amino-1-(fluoromethyl)-5-methyl-2-thia-4-azabicyclo[4.1.0]hept-3-en-5-yl)-6-fluoro-3-pyridinyl)-7-(2-propyn-1-yloxy)pyrido[3,2-d]pyrimidin-4-amine] |
| 0.00183 | 0.0712 | 0.000658 | 317 |  |  |  |  | C#CCOc1cnc2c(Nc3ccc(F)c([C@@]4(C)N=C(N)S[C@@]5(C(=O)NC6CC6)C[C@H]54)c3)ncnc2c1 [Example 791, (1S,5S,6S)-3-amino-N-cyclopropyl-5-(2-fluoro-5-((7-(2-propyn-1-yloxy)pyrido[3,2-d]pyrimidin-4-yl)amino)phenyl)-5-methyl-2-thia-4-azabicyclo[4.1.0]hept-3-ene-1-carboxamide] |
| 0.000648 | 0.0195 | 0.000344 | > 400 |  |  |  |  | C#C[C@H](C)Oc1cnc(C(=O)Nc2ccc(F)c([C@@]3(C)N=C(N)S[C@@]4(C(=O)NC)C[C@H]43)c2)cn1 [Example 978, (1S,5S,6S)-3-amino-5-(5-(5-((S)-but-3-yn-2-yloxy)pyrazine-2-carboxamido)-2-fluorophenyl)-N,5-dimethyl-2-thia-4-azabicyclo[4.1.0]hept-3-ene-1-carboxamide] |
| 0.00175 | 0.0412 | 0.000821 | 34.2 |  |  |  |  | C#CCOc1cnc2c(Nc3ccc(F)c([C@@]4(C)N=C(N)S[C@@]5(C(F)F)C[C@@H]45)c3)ncnc2c1 [Example 819, N-(3-((1S,5S,6S)-3-amino-1-(difluoromethyl)-5-methyl-2-thia-4-azabicyclo[4.1.0]hept-3-en-5-yl)-4-fluorophenyl)-7-(2-propyn-1-yloxy)pyrido[3,2-d]pyrimidin-4-amine] |
| 0.00331 | 0.0778 | 0.00174 | 395 |  |  |  |  | C[C@]1(c2cc(NC(=O)c3cnc(OCC(F)(F)F)cn3)ccc2F)N=C(N)S[C@@]2(CF)C[C@H]21 [Example 826, N-(3-((1S,5S,6S)-3-amino-1-(fluoromethyl)-5-methyl-2-thia-4-azabicyclo[4.1.0]hept-3-en-5-yl)-4-fluorophenyl)-5-(2,2,2-trifluoroethoxy)-2-pyrazinecarboxamide] |
|  |  |  |  | 0.00576 | 0.0039 | 0.00601 | 95.6 | NC1=N[C@](CF)(c2cc(NC(=O)c3ccc(Cl)cn3)ccc2F)[C@H]2C[C@@]2(CO)S1 [Example 42, N-(3-((1R,5S,6R)-3-amino-5-(fluoromethyl)-1-(hydroxymethyl)-2-thia-4-azabicyclo[4.1.0]hept-3-en-5-yl)-4-fluorophenyl)-5-chloro-2-pyridinecarboxamide] |
| 0.01 | 0.498 | > 0.016 | > 400 |  |  |  |  | COC[C@]12C[C@H]1[C@@](C)(c1cc(NC(=O)c3cnc(OCC4CCO4)cn3)ccc1F)N=C(N)S2 (stereo partly drawn) [Example 1058, N-(3-((1S,5S,6S)-3-amino-1-(methoxymethyl)-5-methyl-2-thia-4-azabicyclo[4.1.0]hept-3-en-5-yl)-4-fluorophenyl)-5-(oxetan-2-ylmethoxy)pyrazine-2-carboxamide] |
|  |  |  |  | 0.058 | 0.019 | 0.00433 | 361 | C#CCOc1cnc(C(=O)Nc2ccc(F)c([C@@]3(C)N=C(N)S[C@@H]4[C@H]3C4(F)F)c2)c(C)n1 [Example 102, N-(3-((1R,5S,6R)-3-amino-7,7-difluoro-5-methyl-2-thia-4-azabicyclo[4.1.0]hept-3-en-5-yl)-4-fluorophenyl)-3-methyl-5-(prop-2-yn-1-yloxy)pyrazine-2-carboxamide] |
| 0.00659 | 0.0841 | 0.000711 | 293 |  |  |  |  | C[C@]1(c2cc(NC(=O)c3cnc(OCC(F)(F)F)cn3)ccc2F)N=C(N)S[C@@]2(C(=O)NC3CC3)C[C@H]21 [Example 800, (1S,5S,6S)-3-amino-N-cyclopropyl-5-(2-fluoro-5-(((5-(2,2,2-trifluoroethoxy)-2-pyrazinyl)carbonyl)amino)phenyl)-5-methyl-2-thia-4-azabicyclo[4.1.0]hept-3-ene-1-carboxamide] |
| 0.00213 | 0.013 | 0.00299 | 778 |  |  |  |  | C#CCOc1cnc(C(=O)Nc2ccc(F)c([C@@]3(C)N=C(N)S[C@@]4(COC)C[C@H]43)c2)c(C)n1 [Example 832, N-(3-((1S,5S,6S)-3-amino-1-(methoxymethyl)-5-methyl-2-thia-4-azabicyclo[4.1.0]hept-3-en-5-yl)-4-fluorophenyl)-3-methyl-5-(2-propyn-1-yloxy)-2-pyrazinecarboxamide] |
| 0.00235 | 0.0361 | 0.000589 | 1680 |  |  |  |  | C#CCOc1cnc2c(Nc3cnc(F)c([C@@]4(C)N=C(N)S[C@@]5(CF)C[C@H]54)c3)nccc2n1 [Example 601, N-(5-((1S,5S,6S)-3-amino-1-(fluoromethyl)-5-methyl-2-thia-4-azabicyclo[4.1.0]hept-3-en-5-yl)-6-fluoro-3-pyridinyl)-2-(2-propyn-1-yloxy)pyrido[3,4-b]pyrazin-5-amine] |
| 0.0123 | 0.0115 | 0.00242 | 1190 |  |  |  |  | C[C@]1(c2cc(Nc3nccc4nc(OCc5ncco5)cnc34)cc(F)c2F)N=C(N)S[C@@]2(S(C)(=O)=O)C[C@H]21 [Example 747, (1R,5S,6S)-5-(2,3-difluoro-5-((2-(oxazol-2-ylmethoxy)pyrido[3,4-b]pyrazin-5-yl)amino)phenyl)-5-methyl-1-(methylsulfonyl)-2-thia-4-azabicyclo[4.1.0]hept-3-en-3-amine] |
| 0.00779 | 0.026 | 0.00418 | 675 |  |  |  |  | C#CCOc1cnc(C(=O)Nc2ccc(F)c([C@@]3(C)N=C(N)S[C@@]4(CF)C[C@H]43)c2)c(C)c1 [Example 690, N-(3-((1S,5S,6S)-3-amino-1-(fluoromethyl)-5-methyl-2-thia-4-azabicyclo[4.1.0]hept-3-en-5-yl)-4-fluorophenyl)-3-methyl-5-(2-propyn-1-yloxy)-2-pyridinecarboxamide] |
| 1.66 | 3.86 | 0.149 | 518 |  |  |  |  | C[C@]1(c2cc(Nc3nccc4nc(OCCN5CCCC5=O)cnc34)cc(F)c2F)N=C(N)S[C@@]2(C(F)F)C[C@@H]12 [Example 893, 1-(2-((5-((3-((1S,5S,6S)-3-amino-1-(difluoromethyl)-5-methyl-2-thia-4-azabicyclo[4.1.0]hept-3-en-5-yl)-4,5-difluorophenyl)amino)pyrido[3,4-b]pyrazin-2-yl)oxy)ethyl)-2-pyrrolidinone] |
| 0.00593 | 0.101 | 0.00223 | 571 |  |  |  |  | C#CCOc1cnc2c(Nc3cc(F)c(F)c([C@@]4(C)N=C(N)S[C@@]5(COC)C[C@H]54)c3)ncnc2c1 [Example 943, N-(3-((1S,5S,6S)-3-amino-1-(methoxymethyl)-5-methyl-2-thia-4-azabicyclo[4.1.0]hept-3-en-5-yl)-4,5-difluorophenyl)-7-(2-propyn-1-yloxy)pyrido[3,2-d]pyrimidin-4-amine] |
| 0.00484 | 0.165 | 0.00177 | 82.7 |  |  |  |  | CC(C)(C)NC(=O)[C@]12C[C@H]1[C@@](C)(c1cc(NC(=O)c3cnc(OCC(F)(F)F)cn3)ccc1F)N=C(N)S2 [Example 1002, (1S,5S,6S)-3-amino-N-tert-butyl-5-(2-fluoro-5-(((5-(2,2,2-trifluoroethoxy)-2-pyrazinyl)carbonyl)amino)phenyl)-5-methyl-2-thia-4-azabicyclo[4.1.0]hept-3-ene-1-carboxamide] |

Reference: patent US20160046618A1, “Cyclopropyl Fused Thiazin-2-Amine Compounds as Beta-Secretase Inhibitors and Methods of Use” (AMGEN INC., priority 2014, published 2016)
